Measured values taken from ChEMBL document CHEMBL2331474, “Development of a selective peptide macrocycle inhibitor of coagulation factor XII toward the generation of a safe antithrombotic therapy” (J Med Chem, 2013).
Numbered stars: 1 amine (or outer) side, 2 acyl side, 3 side chain; on linkers, the order of the positions; unused ones are H or OH. Bridge positions count the residues as written; N and C are the ends. Peptide text beside a SMILES is read from it. TBMB = c1c(C[*:1])cc(C[*:3])cc1C[*:2]

Key:
[1] = target: T1, Coagulation factor XII (Homo sapiens) (UniProt P00748); assay: Inhibition of factor 12 in human plasma assessed as residual activity at 20 uM relative to control
T1 sequence (whole entry): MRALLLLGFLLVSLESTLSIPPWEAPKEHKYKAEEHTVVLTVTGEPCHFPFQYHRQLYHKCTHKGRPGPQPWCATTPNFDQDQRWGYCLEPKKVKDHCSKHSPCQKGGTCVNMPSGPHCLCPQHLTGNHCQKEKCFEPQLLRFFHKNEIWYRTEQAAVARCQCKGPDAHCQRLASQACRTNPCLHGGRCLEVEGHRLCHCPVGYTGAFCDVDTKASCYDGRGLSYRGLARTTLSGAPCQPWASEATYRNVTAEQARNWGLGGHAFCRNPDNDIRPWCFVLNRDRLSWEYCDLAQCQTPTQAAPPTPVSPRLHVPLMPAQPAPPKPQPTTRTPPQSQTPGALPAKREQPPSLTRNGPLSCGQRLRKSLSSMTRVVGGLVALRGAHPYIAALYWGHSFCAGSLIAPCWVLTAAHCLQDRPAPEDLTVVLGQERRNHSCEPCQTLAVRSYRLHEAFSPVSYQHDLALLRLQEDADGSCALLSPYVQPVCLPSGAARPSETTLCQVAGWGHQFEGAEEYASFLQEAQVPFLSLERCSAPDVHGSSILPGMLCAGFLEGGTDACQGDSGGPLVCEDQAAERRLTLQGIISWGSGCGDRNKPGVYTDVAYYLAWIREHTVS

Plasma = assay: Inhibition of intrinsic coagulation in human plasma assessed as increase in activated partial […] time; format: functional, cell-free
[2] = target: T1, Coagulation factor XII (Homo sapiens); assay: Inhibition of factor 12 in human plasma assessed as residual activity at 200 uM relative to control
[3] = target: T1, Coagulation factor XII (Homo sapiens); assay: Inhibition of factor 12 in human plasma assessed as decrease in residual activity relative to control
[4] = target: T1, Coagulation factor XII (Homo sapiens); assay: Inhibition of factor 12 in human plasma assessed as residual activity at 500 uM relative to control
[5] = target: T1, Coagulation factor XII (Homo sapiens); assay: Inhibition of factor 12 in human plasma assessed as residual activity at 100 uM relative to control
[6] = target: T1, Coagulation factor XII (Homo sapiens); assay: Inhibition of factor 12 in human plasma assessed as residual activity at 50 uM relative to control
[7] = target: T1, Coagulation factor XII (Homo sapiens); assay: Inhibition of factor 12 in human plasma assessed as residual activity at 10 uM relative to control
Plasminogen = Plasminogen (Homo sapiens, UniProt P00747); assay: Inhibition of human plasmin using H-D-Val-Leu-Lys-AMC as substrate assessed as residual activity by fluorescence plate reader analysis
Chain of Plasminogen (P00747 97-580 limits assumed): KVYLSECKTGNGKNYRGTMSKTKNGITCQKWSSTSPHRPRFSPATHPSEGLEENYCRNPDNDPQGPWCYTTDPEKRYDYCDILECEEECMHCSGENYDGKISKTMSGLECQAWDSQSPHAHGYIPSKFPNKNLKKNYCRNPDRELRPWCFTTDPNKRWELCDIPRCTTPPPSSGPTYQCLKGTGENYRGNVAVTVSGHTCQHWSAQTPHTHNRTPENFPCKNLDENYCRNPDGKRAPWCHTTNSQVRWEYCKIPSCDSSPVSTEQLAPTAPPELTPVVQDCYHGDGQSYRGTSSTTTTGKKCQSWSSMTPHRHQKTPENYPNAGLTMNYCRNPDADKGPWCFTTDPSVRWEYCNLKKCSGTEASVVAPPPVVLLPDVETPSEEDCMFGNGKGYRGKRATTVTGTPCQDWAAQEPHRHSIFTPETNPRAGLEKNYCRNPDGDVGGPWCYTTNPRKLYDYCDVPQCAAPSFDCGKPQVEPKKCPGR
Chain of Plasminogen (P00747 581-810 limits assumed): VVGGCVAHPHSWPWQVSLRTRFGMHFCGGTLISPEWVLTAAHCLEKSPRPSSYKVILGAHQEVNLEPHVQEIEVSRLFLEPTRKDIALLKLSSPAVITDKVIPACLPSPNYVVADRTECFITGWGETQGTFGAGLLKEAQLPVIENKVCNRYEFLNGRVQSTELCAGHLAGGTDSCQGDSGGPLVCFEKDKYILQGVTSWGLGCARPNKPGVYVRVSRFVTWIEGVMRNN

Coagulation factor XII = target: T2, Coagulation factor XII (Homo sapiens, UniProt P00748); assay: Inhibition of human biotinylated beta factor 12a expressed in Escherichia coli TG1 using Z-Gly-Gly-Arg-AMC as substrate assessed as residual activity by fluorometric analysis
T2 sequence (P00748 whole entry): T1 sequence (whole entry)

Coagulation factor XI = Coagulation factor XI (Homo sapiens, UniProt P03951); assay: Inhibition of human coagulation factor 11a using Boc-Phe-Ser-Arg-AMC as substrate assessed as residual activity by fluorometric analysis
Chain of Coagulation factor XI (P03951 19-387 limits assumed): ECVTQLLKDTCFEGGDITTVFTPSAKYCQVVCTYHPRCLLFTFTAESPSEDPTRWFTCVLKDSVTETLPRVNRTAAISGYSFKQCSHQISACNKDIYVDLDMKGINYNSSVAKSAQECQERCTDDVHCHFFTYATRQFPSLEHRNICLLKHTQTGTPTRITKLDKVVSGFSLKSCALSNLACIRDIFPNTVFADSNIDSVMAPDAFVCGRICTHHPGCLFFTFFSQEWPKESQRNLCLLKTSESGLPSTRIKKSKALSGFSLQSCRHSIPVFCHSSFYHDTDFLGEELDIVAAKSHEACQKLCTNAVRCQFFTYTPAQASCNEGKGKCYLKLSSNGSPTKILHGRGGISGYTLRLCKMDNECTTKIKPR
Chain of Coagulation factor XI (P03951 388-625 limits assumed): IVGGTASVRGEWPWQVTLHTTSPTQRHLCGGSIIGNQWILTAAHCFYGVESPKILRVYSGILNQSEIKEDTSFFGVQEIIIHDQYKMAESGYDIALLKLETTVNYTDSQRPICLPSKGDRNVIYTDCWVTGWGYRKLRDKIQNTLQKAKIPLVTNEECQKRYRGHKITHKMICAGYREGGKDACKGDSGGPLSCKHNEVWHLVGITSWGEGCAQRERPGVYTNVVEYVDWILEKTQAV

Plasma kallikrein = Plasma kallikrein (Homo sapiens, UniProt P03952); assay: Inhibition of human PK using Z-Phe-Arg-AMC as substrate assessed as residual activity by fluorometric analysis
Chain of Plasma kallikrein (P03952 20-390 limits assumed): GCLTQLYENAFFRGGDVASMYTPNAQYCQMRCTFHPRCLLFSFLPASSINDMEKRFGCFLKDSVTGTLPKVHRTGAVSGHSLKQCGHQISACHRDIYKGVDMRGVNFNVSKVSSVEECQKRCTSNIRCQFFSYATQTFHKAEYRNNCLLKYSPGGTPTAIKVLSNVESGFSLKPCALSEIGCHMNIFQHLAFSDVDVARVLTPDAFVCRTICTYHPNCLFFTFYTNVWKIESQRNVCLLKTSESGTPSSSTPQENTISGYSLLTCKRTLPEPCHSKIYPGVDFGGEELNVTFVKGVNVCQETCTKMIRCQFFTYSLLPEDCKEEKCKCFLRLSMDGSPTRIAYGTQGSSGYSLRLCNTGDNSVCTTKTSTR
Chain of Plasma kallikrein (P03952 391-638 limits assumed): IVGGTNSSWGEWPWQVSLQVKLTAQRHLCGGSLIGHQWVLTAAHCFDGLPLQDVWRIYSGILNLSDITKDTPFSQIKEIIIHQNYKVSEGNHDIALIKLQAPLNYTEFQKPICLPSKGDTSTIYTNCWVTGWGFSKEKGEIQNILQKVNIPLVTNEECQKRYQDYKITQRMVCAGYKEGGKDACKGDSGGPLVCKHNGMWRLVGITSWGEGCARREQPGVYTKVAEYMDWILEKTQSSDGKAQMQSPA

[8] = target: Tissue-type plasminogen activator (Homo sapiens, UniProt P00750); assay: Inhibition of human tPA using Z-Gly-Gly-Arg-AMC as substrate assessed as residual activity by fluorometric analysis
Chain of Tissue-type plasminogen activator (P00750 whole entry): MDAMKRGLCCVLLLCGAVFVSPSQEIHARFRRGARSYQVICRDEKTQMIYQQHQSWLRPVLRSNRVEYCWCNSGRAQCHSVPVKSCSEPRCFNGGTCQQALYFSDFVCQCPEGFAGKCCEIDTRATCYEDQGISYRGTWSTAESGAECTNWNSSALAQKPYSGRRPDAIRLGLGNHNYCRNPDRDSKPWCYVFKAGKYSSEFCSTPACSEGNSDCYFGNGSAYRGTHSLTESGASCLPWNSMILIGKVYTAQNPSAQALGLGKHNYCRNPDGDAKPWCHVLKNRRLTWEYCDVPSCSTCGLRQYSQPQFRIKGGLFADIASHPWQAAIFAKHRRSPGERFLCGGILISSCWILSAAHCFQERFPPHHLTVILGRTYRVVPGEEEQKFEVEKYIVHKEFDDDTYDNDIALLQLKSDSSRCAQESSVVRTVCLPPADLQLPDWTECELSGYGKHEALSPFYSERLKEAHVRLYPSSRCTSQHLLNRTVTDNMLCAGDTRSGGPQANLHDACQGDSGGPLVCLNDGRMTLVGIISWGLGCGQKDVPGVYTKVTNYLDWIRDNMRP

[9] = target: Urokinase-type plasminogen activator (Homo sapiens, UniProt P00749); assay: Inhibition of human uPA using Z-Gly-Gly-Arg-AMC as substrate assessed as residual activity by fluorometric analysis
Prothrombin = Prothrombin (Homo sapiens, UniProt P00734); assay: Inhibition of human thrombin using Z-Gly-Gly-Arg-AMC as substrate assessed as residual activity by fluorescence plate reader analysis
Serine protease 1 = Serine protease 1 (Homo sapiens, UniProt P07477); assay: Inhibition of human trypsin using Z-Gly-Gly-Arg-AMC as substrate assessed as residual activity by fluorescence plate reader analysis
Chain of Serine protease 1 (P07477 whole entry): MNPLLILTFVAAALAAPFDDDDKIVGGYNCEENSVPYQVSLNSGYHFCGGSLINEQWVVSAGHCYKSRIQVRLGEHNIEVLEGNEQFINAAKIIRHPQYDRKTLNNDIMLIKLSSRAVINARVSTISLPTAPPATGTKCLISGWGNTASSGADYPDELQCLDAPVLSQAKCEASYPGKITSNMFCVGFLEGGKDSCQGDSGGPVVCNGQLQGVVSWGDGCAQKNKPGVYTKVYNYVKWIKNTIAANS

Row | SMILES | Ki (Plasminogen) | Ki (Coagulation factor XII) | other results
1 | C[C@@H]1NC(=O)[C@@H]2CCCN2C(=O)[C@@H]2CCCN2C(=O)[C@@H]2CSCc3cc(cc(c3)CSC[C@@H](C(=O)NCC(=O)O)NC(=O)[C@H](Cc3ccc(O)cc3)NC1=O)CSC[C@H](NC(=O)CN)C(=O)NCC(=O)NCC(=O)N[C@@H](CCCNC(=N)N)C(=O)N1CCC[C@H]1C(=O)N2 (H-GCGGRPCPPAYCG-OH; linker 2-7-12 via TBMB) | – | – | Activity [1]: 89%; inhibition (Plasma): Dose-dependent effect; Activity [2]: 42%; inhibition [3]: Dose-dependent effect; Activity [4]: 20%; Activity [5]: 51%; Activity [6]: 70%; Activity [7]: 95%
2 | CC(C)C[C@H](NC(=O)[C@H](CS)NC(=O)[C@H](Cc1ccc(O)cc1)NC(=O)[C@@H](NC(=O)[C@H](CCC(N)=O)NC(=O)[C@@H]1CCCN1C(=O)[C@H](CS)NC(=O)[C@@H]1CCCN1C(=O)[C@H](CCCNC(=N)N)NC(=O)[C@H](C)NC(=O)[C@H](CC(=O)O)NC(=O)[C@H](CS)NC(=O)[C@H](C)N)[C@@H](C)O)C(=O)O (H-ACDARPCPQTYCL-OH) | > 120 µM | 20.5 µM | –
3 | C[C@@H]1NC(=O)[C@@H]2CCCN2C(=O)[C@@H]2CCCN2C(=O)[C@@H]2CSCc3cc(cc(c3)CSC[C@H](NC(=O)[C@@H](N)CO)C(=O)NCC(=O)NCC(=O)N[C@@H](CCCNC(=N)N)C(=O)N3CCC[C@H]3C(=O)N2)CSC[C@@H](C(=O)N[C@@H](CCCCN)C(=O)O)NC(=O)[C@H](Cc2ccc(O)cc2)NC1=O (H-SCGGRPCPPAYCK-OH; linker 2-7-12 via TBMB) | 8.3 µM | 3.1 µM | Ki (Coagulation factor XI): > 120 µM; Ki (Plasma kallikrein): > 120 µM; Ki [8]: > 120 µM; Ki [9]: > 120 µM; Ki (Prothrombin): > 120 µM; Ki (Serine protease 1): > 120 µM
4 | CC(C)C[C@H](NC(=O)[C@@H]1CCCN1C(=O)[C@H](CS)NC(=O)[C@@H]1CCCN1C(=O)[C@H](CCCNC(=N)N)NC(=O)CNC(=O)[C@H](Cc1cnc[nH]1)NC(=O)[C@H](CS)NC(=O)CN)C(=O)N[C@@H](CCC(N)=O)C(=O)N[C@@H](Cc1ccc(O)cc1)C(=O)N[C@@H](CS)C(=O)N[C@@H](CCCCN)C(=O)O (H-GCHGRPCPLQYCK-OH) | 14.2 µM | 11.2 µM | –
5 | C[C@H](NC(=O)[C@@H]1CCCN1C(=O)[C@@H]1CCCN1C(=O)[C@H](CS)NC(=O)[C@@H]1CCCN1C(=O)[C@H](CCCN=C(N)N)NC(=O)CNC(=O)CNC(=O)[C@H](CS)NC(=O)[C@@H](N)CO)C(=O)N[C@@H](Cc1ccc(O)cc1)C(=O)N[C@@H](CS)C(=O)N[C@@H](CCCCN)C(=O)O (H-SCGGRPCPPAYCK-OH) | 8.3 µM | 3.1 µM | –
6 | C[C@@H]1NC(=O)[C@@H]2CCCN2C(=O)[C@@H]2CCCN2C(=O)[C@@H]2CSCc3cc(cc(c3)CSC[C@@H](C(=O)NCC(=O)O)NC(=O)[C@H](Cc3ccc(O)cc3)NC1=O)CSC[C@H](NC(=O)CN)C(=O)NCC(=O)NCC(=O)N[C@@H](CCCN=C(N)N)C(=O)N1CCC[C@H]1C(=O)N2 (H-GCGGRPCPPAYCG-OH; linker 2-7-12 via TBMB) | > 120 µM | 1.2 µM | Ki (Coagulation factor XI): > 120 µM; Ki (Plasma kallikrein): > 120 µM; Ki [8]: > 120 µM; Ki [9]: > 120 µM; Ki (Prothrombin): > 120 µM; Ki (Serine protease 1): > 120 µM
7 | C[C@H](NC(=O)[C@H](CC(N)=O)NC(=O)[C@H](CS)NC(=O)[C@@H](N)CCC(N)=O)C(=O)N[C@@H](CCCNC(=N)N)C(=O)N1CCC[C@H]1C(=O)N[C@@H](CS)C(=O)N1CCC[C@H]1C(=O)N[C@@H](CO)C(=O)N[C@@H](CO)C(=O)N[C@@H](Cc1ccc(O)cc1)C(=O)N[C@@H](CS)C(=O)N[C@@H](CCCNC(=N)N)C(=O)O (H-QCNARPCPSSYCR-OH) | 118 µM | 4.7 µM | –
8 | N=C(N)NCCC[C@H](NC(=O)CNC(=O)[C@H](CO)NC(=O)[C@H](CS)NC(=O)[C@@H](N)CO)C(=O)N[C@@H](CCCNC(=N)N)C(=O)N[C@@H](CS)C(=O)N1CCC[C@H]1C(=O)N1CCC[C@H]1C(=O)N[C@@H](CO)C(=O)N[C@@H](Cc1ccc(O)cc1)C(=O)N[C@@H](CS)C(=O)N[C@@H](CCCCN)C(=O)O [SCSGRRCPPSYCK] (H-SCSGRRCPPSYCK-OH) | 3.3 µM | 7.8 µM | –
9 | CC(C)C[C@H](NC(=O)[C@H](CCCNC(=N)N)NC(=O)[C@H](Cc1ccccc1)NC(=O)[C@H](C)NC(=O)[C@H](CS)NC(=O)CNC(=O)[C@H](CCC(N)=O)NC(=O)[C@@H](NC(=O)[C@@H](NC(=O)[C@H](CS)NC(=O)[C@@H](N)[C@@H](C)O)[C@@H](C)O)[C@@H](C)O)C(=O)N[C@@H](CS)C(=O)N[C@@H](CO)C(=O)O (H-TCTTQGCAFRLCS-OH) | – | > 75 µM | –
10 | CSCC[C@H](NC(=O)[C@@H]1CCCN1C(=O)[C@H](CS)NC(=O)[C@@H]1CCCN1C(=O)[C@H](CCCN=C(N)N)NC(=O)CNC(=O)[C@H](CC(C)C)NC(=O)[C@H](CS)NC(=O)CN)C(=O)N[C@@H](C)C(=O)N[C@@H](Cc1ccc(O)cc1)C(=O)N[C@@H](CS)C(=O)N[C@@H](CO)C(=O)O (H-GCLGRPCPMAYCS-OH) | > 120 µM | 5 µM | –
11 | CC(C)C[C@H](NC(=O)[C@H](C)NC(=O)[C@H](CC(C)C)NC(=O)[C@@H]1CCCN1C(=O)[C@H](CS)NC(=O)[C@@H]1CCCN1C(=O)[C@H](CCCNC(=N)N)NC(=O)[C@H](C)NC(=O)[C@H](Cc1c[nH]c2ccccc12)NC(=O)[C@H](CS)NC(=O)CN)C(=O)N[C@@H](CS)C(=O)N[C@@H](CCC(N)=O)C(=O)O (H-GCWARPCPLALCQ-OH) | > 120 µM | 10.2 µM | –
12 | C[C@@H]1NC(=O)[C@@H]2CCCN2C(=O)[C@@H]2CCCN2C(=O)[C@@H]2CSCc3cc(cc(c3)CSC[C@H](NC(=O)[C@@H](N)CO)C(=O)NCC(=O)NCC(=O)N[C@@H](CCCNC(=N)N)C(=O)N3CCC[C@H]3C(=O)N2)CSC[C@@H](C(=O)NCC(N)=O)NC(=O)[C@H](Cc2ccc(O)cc2)NC1=O (H-SCGGRPCPPAYCG-NH2; linker 2-7-12 via TBMB) | 4.3 µM | – | –
13 | CSCC[C@H](NC(=O)[C@H](CS)NC(=O)CN)C(=O)NCC(=O)N[C@@H](CCCNC(=N)N)C(=O)N1CCC[C@H]1C(=O)N[C@@H](CS)C(=O)N1CCC[C@H]1C(=O)N[C@H](C(=O)N[C@@H](CO)C(=O)N[C@@H](Cc1ccc(O)cc1)C(=O)N[C@@H](CS)C(=O)N[C@@H](Cc1ccccc1)C(=O)O)C(C)C (H-GCMGRPCPVSYCF-OH) | > 120 µM | 5 µM | –
14 | CC(C)[C@H](N)C(=O)N[C@@H](CS)C(=O)N[C@H](C(=O)N[C@@H](CCC(N)=O)C(=O)N[C@@H](CCCCN)C(=O)N[C@@H](Cc1ccccc1)C(=O)N[C@@H](CS)C(=O)N[C@@H](Cc1c[nH]c2ccccc12)C(=O)N[C@@H](CCCNC(=N)N)C(=O)NCC(=O)N[C@@H](Cc1c[nH]c2ccccc12)C(=O)N[C@@H](CS)C(=O)N1CCC[C@H]1C(=O)O)C(C)C (H-VCVQKFCWRGWCP-OH) | – | > 75 µM | –
15 | CC(C)C[C@H](NC(=O)[C@@H]1CCCN1C(=O)[C@H](CS)NC(=O)[C@@H]1CCCN1C(=O)[C@H](CCCN=C(N)N)NC(=O)[C@H](C)NC(=O)[C@H](C)NC(=O)[C@H](CS)NC(=O)CN)C(=O)N[C@H](C(=O)N[C@@H](C)C(=O)N[C@@H](CS)C(=O)N[C@@H](Cc1c[nH]c2ccccc12)C(=O)O)[C@@H](C)O (H-GCAARPCPLTACW-OH) | > 120 µM | 33.5 µM | –
